Data set [1] concerns S. aureus infected HL cell line. Put plainly: Host-pathogen co-culture assay. The conditions noted are these: at the highest concentration (range 0.024–100 µM), 3 days. It counts as cell-based, Staphylococcus aureus. As to the method:
Briefly, HL cells used as the host cell were seeded at 40000 cells/well on black-walled microplates (Perkin Elmer) and incubated at 37°C, 5% CO2 and 95% humidity for 24 h. Cell monolayers were infected with 2000 cfus of S. aureus in RPMI 1640 media without antibiotics. Compounds were added to the media at different concentrations selected on the basis of the MIC determinations. […] Co-cultures were incubated for 3 days at 37°C, 5% CO2 and 95% humidity. Following the incubation period the cells were washed with 200 µL 6.7 mM PBS, pH 7.4, and finally, 200 µL 6.7 mM PBS, pH 7.4 containing 10 µg/mL fluorescein diacetate (FDA) was added to the cells to evaluate the survival of the host cells. After 45 min incubation at room temperature (RT), fluorescence was measured at 485 nm excitation and 538 nm emission with a Victor plate reader.
For studying simultaneously the efficacy and tolerability of antibacterial compounds, an assay based on co-culturing of a secondary human cell line (HL, derived originally from human lung) and a pathogen was used. […] In the assay, host cells are incubated in the presence of the test sample and are infected with bacteria. After 3 days of incubation, the host cell survival is determined using fluorescein diacetate to measure the viability of the host cells. […]

Data set [2] relates to E. aerogenes ATCC 13048. Put plainly: Broth microdilution assay, E. aerogenes. The conditions noted are these: for inhibition at 50 µM: Klebsiella aerogenes, ATCC13048, 24 h, read-out: Inhibitory effect (%) E. aerogenes ATCC 13048. It counts as cell-based, Enterobacter aerogenes. In short, it runs like this: (§1)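 Broth microdilution per CLSI/EUCAST in Mueller Hinton II broth, 5×10^5 cfu/mL, 24 h at 37°C with agitation; growth by absorbance at 620 nm versus controls. Compounds first screened at 50 µM.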

Data set [3] has as its system C. albicans ATCC 90028. Put plainly: Broth microdilution assay, C. albicans. It counts as cell-based, Candida albicans. An outline of the steps:
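Candida albicans ATCC 90028 was grown on Sabouraud Dextrose Agar at 27°C for 16–18 h, then suspended in sterile 0.9% saline. Broth microdilution in clear 96-well plates mixed equal volumes of yeast suspension and diluted sample. Plates were incubated with agitation at 35°C for 48 h. Absorbance at 620 nm was read at 0, 24 and 48 h, and growth inhibition was expressed as a percentage relative to controls.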
(Broth dilution looks for growth in wells or tubes with falling amounts of substance.)

Data set [4] concerns E. faecalis ATCC 29212. Put plainly: Broth microdilution assay, E. faecalis. It counts as cell-based, Enterococcus faecalis. The conditions noted are these: for Inhibitory effect (%) E. faecalis ATCC 29212 / inhibition at 50 µM: 50 µM, 24 h, inhibition of growth, mean ± SD; for inhibition at 50 µM: ATCC29212, 24 h, read-out: Inhibitory effect (%) E. faecalis ATCC 29212. An outline of the steps: as §1

In data set [5] the test system is E. coli ATCC 25922. Briefly: Broth microdilution assay, E. coli. It counts as cell-based, Escherichia coli. In short, it runs like this: as §1
Data set [6] deals with S. aureus ATCC 25923. Put plainly: Broth microdilution assay, S. aureus. It counts as cell-based, Staphylococcus aureus. Particulars: for inhibition at 50 µM: ATCC25923, 24 h. In short, it runs like this:
as §1

Data set [7] relates to Huh-7 cells. Put plainly: in vitro. Particulars: for Cytotoxicity (%) Huh-7 cells: 50 µM. It counts as cell-based, human. An outline of the steps:
(§2)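 Cytotoxicity read-out: intracellular ATP (CellTiter-Glo luminescence) in Huh-7 hepatoma cells seeded at 20000 cells/well, cultured overnight, then exposed to compounds for 24 h at 37°C in 5% FBS medium. Polymyxin B sulphate (15000 IU/mL) served as positive control.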

Data set [8] can be described thus: in vitro. It counts as cell-based, human. Particulars: human. In short, it runs like this:
as §2

Data set [9] concerns P. aeruginosa ATCC 27853. Put plainly: Broth microdilution assay, P. aeruginosa. It counts as cell-based, Pseudomonas aeruginosa. An outline of the steps: as §1
In data set [10] the test system is S. aureus. Briefly: Effect of BSA on antimicrobial activity (S. aureus microdilution assay). It counts as cell-based, Staphylococcus aureus. Particulars: compound at MIC90 6.25 µM. As to the method: The effect of bovine serum albumin (BSA) on antimicrobial activity was assessed by using the S. aureus microdilution assay in a similar manner as described above, but with increasing concentrations of BSA, ranging from 0.023 nM to 25 µM [23].
As described above, the antimicrobial activities of betulin derivatives seen in the microdilution assay were not detectable in the host-pathogen co-culture assay. Since the assay was performed in cell culture media containing 7.5% of fetal bovine serum, this was suspected to be the reason. Serum is rich in proteins, the most abundant of these being albumin. First, we performed the normal antibacterial assay by replacing the Mueller Hinton II broth with the cell culture media. […] The activity of compound 5 was clearly affected by the added BSA: at 24 nM concentration the activity was reduced by 50% and at concentration 390 nM the activity was completely lost. As a comparison, the concentration of albumin in human serum is typically 36–48 g/L which corresponds to […] concentration. Albumin is capable of interacting with many organic and inorganic molecules and functions as a key controller of intercellular fluxes [43]–[52]. Majority of therapeutic compounds are reversibly bound to plasma proteins, but the degree and nature of the binding differs. […]

In data set [11] the test system is S. aureus, E. coli, B. subtilis and Micrococcus luteus. Details: method as in PMID 12601674, PMID 7500642, PMID 8590637. The conditions noted are these: ref 19, 33, 34; cited from earlier work.
In data set [12] the test system is S. aureus and E. faecalis. The arrangement: method as in PMID 18835348. The conditions noted are these: ref 36; cited from earlier work.
The subject of data set [13] is B. subtilis, S. aureus, S. pyogenes, Staphylococcus saprophyticus, E. coli, P. aeruginosa and Shigella sonnei. Details: method as in PMID 23684720. Particulars: ref 37; cited from earlier work.
The mark [14] stands for this setting: 50 µM, 24 h, inhibition of growth, mean ± SD.
Setting [15] is: Candida albicans, ATCC90028, 48 h; read-out: Inhibitory effect (%) C. albicans ATCC 90028.
Where [16] appears, read: Escherichia coli, ATCC25922, 24 h; read-out: Inhibitory effect (%) E. coli ATCC 25922.
The mark [17] stands for this setting: Staphylococcus aureus, 50 µM, 24 h, inhibition of growth, mean ± SD, read-out: Inhibitory effect (%) S. aureus ATCC 25923.
The mark [18] stands for this setting: Pseudomonas aeruginosa, ATCC27853, 24 h; read-out: Inhibitory effect (%) P. aeruginosa ATCC 27853.

Results on 4 compounds are retold here after PMC4102551, “Screening and Characterisation of Antimicrobial Properties of Semisynthetic Betulin Derivatives” (PLoS ONE, 2014).

In brackets after ≈: the same amount, converted by molar mass. Several values for one entry are separate records, joined by “and”; a condition that tells them apart may be missing. Equal entries are not always repeated. Where two headings read alike, the source gives them in different places. A value given as a limit tells only on which side of the number the result lay.

On to `C=C(C)[C@@H]1CC[C@]2(C(=O)O)CC[C@]3(C)C(CCC4[C@@]5(C)CCC(=O)C(C)(C)C5CC[C@]43C)C12` (stereo partly drawn) [Compound 23, betulonic acid], for which the “Activity in host-pathogen co-culture assay” value in data set [1] was found to be 27%. Moreover, the inhibition at 50 µM in data set [2] (setting [14]) is 21.8 ± 4.1%; in data set [3] (setting [15]) it was 25.2 ± 11%; in data set [4] (Enterococcus faecalis), over 70%; in data set [5] (setting [16]), 9.1 ± 8.9%; in data set [6] (setting [17]) it was 51%; in [9] (setting [18]), 9.5 ± 2.5%. In data set [4], the “Inhibitory effect (%) E. faecalis ATCC 29212” value is 74% and 74.3±0.8%. Besides, the “Inhibitory effect (%) S. aureus ATCC 25923” value in data set [6] (setting [14]) turned out to be 51.1±7.3%. Further, the “Cytotoxicity (%) Huh-7 cells” value in data set [7] (human, 24 h) is on record as 17.8±12.6%. This compound returned a cytotoxicity at 24 h, 50 µM in [8] (Cytotoxicity (%) Huh-7 cells) of 18%.

For orientation: MIC90 means the lowest concentration that inhibits either 90% of growth or 90% of the strains tested, depending on the study. As a reminder, the IC50 is the midpoint of a concentration-inhibition curve. With `C=C(C)[C@@H]1CC[C@]2(COC(=O)c3ccccc3NC(C)=O)CC[C@]3(C)C(CCC4[C@@]5(C)CC[C@H](O)C(C)(C)C5CC[C@]43C)C12` (stereo partly drawn) [Compound 5, 28-O-(N-acetylanthraniloyl)betulin], the inhibition at 50 µM in [2] was 25.2 ± 2%; in data set [3] (Candida albicans, ATCC90028, 48 h, read-out: Inhibitory effect (%) C. albicans ATCC 90028), 10 ± 5.2%; in data set [5] (Escherichia coli, ATCC25922, 24 h, read-out: Inhibitory effect (%) E. coli ATCC 25922), 0.5 ± 3.1%; in [6] (Staphylococcus aureus, read-out: Inhibitory effect (%) S. aureus ATCC 25923, 50 µM, 24 h, inhibition of growth, mean ± SD), over 90%; in data set [9] (Pseudomonas aeruginosa, ATCC27853, 24 h, read-out: Inhibitory effect (%) P. aeruginosa ATCC 27853), 12.3 ± 2.3%. In [4], the “Inhibitory effect (%) E. faecalis ATCC 29212” value is recorded as 98.5±0.2%. The MIC90 worked out at 6.25 µM (≈ 3.77 µg/mL) in data set [4] (Enterococcus faecalis, ATCC29212, read-out: MIC90 against E. faecalis) and 6.25 µM (≈ 3.77 µg/mL) in [6] (Staphylococcus aureus, ATCC25923, read-out: MIC90 against S. aureus). For the same compound, the “BSA concentration at which the activity was completely lost” value in data set [10] is recorded as 390 nM. In addition, the “BSA concentration at which the activity was reduced by 50%” value in data set [10] was 24 nM. Further, in [6] (setting [14]), the “Inhibitory effect (%) S. aureus ATCC 25923” value stood at 100.2±0.1%. In addition, the “Effect on Huh-7 cell monolayer in ATP assay” value in data set [7] (100 µM, 24 h) was “completely destroyed the cell monolayer”. Also, the cytotoxicity at 24 h, 50 µM in data set [8] (50 µM, 24 h exposure, ATP content, 5% FBS, read-out: Cytotoxicity (%) Huh-7 cells) amounted to 30 ± 3%. Also, in data set [8] (24 h exposure, ATP assay, 5% FBS, read-out: IC50 cytotoxicity Huh-7 cells), the IC50 at 24 h was 56 µM.

With `C=C(C)[C@@H]1CC[C@]2(C(=O)O)CC[C@]3(C)[C@H](CC[C@@H]4[C@@]5(C)CC[C@H](O)C(C)(C)[C@@H]5CC[C@]43C)[C@@H]12` [Compound 19, betulinic acid], the “Activity against S. aureus, E. coli, B. subtilis and Micrococcus luteus” value in [11] is “inactive”. The “Inhibitory effect (%) E. aerogenes ATCC 13048” value in [2] (setting [14]) stood at 38.2±3.0%. The inhibition at 50 µM was 38% in data set [2] (setting [14]); 21.6 ± 2.6% in [3] (setting [15]); 56% in data set [4] (Enterococcus faecalis); 20.2 ± 6.1% in [5] (setting [16]); 22.8 ± 5.4% in data set [6] (setting [17]); 6.7 ± 1.4% in data set [9] (setting [18]). The “MIC against S. aureus and E. faecalis” value in data set [12] is over 256 µg/mL. Besides, the “Inhibitory effect (%) C. albicans ATCC 90028” value in data set [3] (50 µM, 48 h at 35°C, inhibition of growth, mean ± SD) was “inactive”. Further, the “Inhibitory effect (%) E. faecalis ATCC 29212” value in data set [4] came out at 55.9±5.0%. In addition, the “Cytotoxicity (%) Huh-7 cells” value in [7] (24 h exposure, ATP content, 5% FBS) is recorded as 31.6±15.7%. For the same compound, the cytotoxicity at 24 h, 50 µM in data set [8] (Huh-7 cells, 50 µM, 24 h exposure, ATP content, 5% FBS, read-out: Cytotoxicity (%) Huh-7 cells) was determined as 30%.

As for `CC1(C)C=C2[C@H]3CC[C@@H]4[C@@]5(C)CC[C@H](O)C(C)(C)[C@@H]5CC[C@@]4(C)[C@]3(C)CC[C@@]2(C(=O)O)CC1` [MA, morolic acid], the “MIC against a panel of seven different bacterial species” value in [13] is recorded as at least 100 µg/mL.
